Test results from patent US20230149358A1, “COMBINATION CANCER THERAPY WITH PENTAAZA MACROCYCLIC RING COMPLEX AND HORMONE THERAPY AGENT” (Galera Labs, LLC, priority 2020, published 2023).

Assays:
[1] = tested on: head-and-neck cancer patients; conditions: head-and-neck cancer patients undergoing chemoradiation therapy; cited from earlier work
[2] = tested on: MCF7-Cispl-R cells; test: Cisplatin sensitivity, MCF7-Cispl-R cells; assay type: cell-based, human; conditions: MCF7-Cispl-R treated with GC4419
[3] = tested on: LNCaP-MnSOD^K68Q xenografts; test: LNCaP-MnSOD^K68Q hindlimb xenograft growth in nude mice; assay type: in vivo; conditions: male nude mice; GC4419 10 mg/kg once per week, ENZ 25 mg/kg/day; 46 days
Procedure: In FIG. 21(a), clonogenic cell survival experiments were performed in LNCaP-ENZR (left two bars) and LNCaP-MnSOD^K68Q (right two bars) treated with ENZ, with or without GC4419 (20 μM) for 5 days. […] Tumor volumes were measured three times a week for 46 days. For each group n=10. Error bars ±1 SEM. All experiments done in triplicate. **p<0.01.
Thus, it was surmised that restoring SOD activity, using the pentaaza macrocyclic ring complex GC4419, an agent that chemically detoxifies superoxide, would reverse/convert the ENZR to a sensitive phenotype. […] The dose and pharmacokinetics for GC4419 is based on data for murine models^92-93.

[4] = tested on: Tam resistant as well as loss of Sirt3 tumor cell lines; test: In vitro Tam resistance, Tam resistant and loss of Sirt3 tumor cell lines; assay type: cell-based; conditions: data not shown
[5] = tested on: MCF7-Cispl-R cells; test: Cell ROS levels, MCF7-Cispl-R cells; assay type: cell-based, human; conditions: GC4419 exposure; data not shown
Procedure: FIGS. 27a-27c are an image and graphs showing that MnSOD-Ac-K68/HIF2α dysregulation directs PanR (resistance to cancer therapeutics). […] In FIG. 27b, ROS was measured in MCF7-Cispl-R cells, compared with MCF7 cells, using an Amplex Red assay. In FIG. 27c, MCF7 and MCF7-MnSOD^K68Q cells were measured by clonogenic cell survival assays, without and with Cispl exposure, and infected with scrambled (C) or HIF2α shRNA. All experiments were done in triplicate. Error bars are ±1 SEM. * p<0.05.
Aberrant HIF2α levels promote lineage plasticity, leading to chemoresistance and metastasis. […] Thus, MCF7 cells were selected for cisplatin resistance (Cispl-R) by 3 months of exposure to 5 μM Cispl.

[6] = tested on: MCF-7-MnSOD^K68Q cells; test: Clonogenic cell survival after 5 Gy ionizing radiation, MCF-7-MnSOD^K68Q cells; assay type: cell-based, human; conditions: 5 μM GC4419 for 5 days, then 5 Gy ionizing radiation
Procedure: FIGS. 30a-30b are plots showing that expression of MnSOD^K68Q induces ionizing radiation resistance (IRR) in MCF7 cells. […] All experiments were done in triplicate. Error bars represent±1 SEM. ***p<0.001. Data were analyzed by a t-test.
To determine if the MnSOD-K68-Ac-ROS axis plays a role in IRR, it was hypothesized that MnSOD acetylation might play a role in how tumor cells are reprogrammed to produce a IRR phenotype. To address this idea, an established tumor cell line MCF-7 was infected with lenti-MnSOD^K68Q to induce MnSOD^K68Q expression, which was validated. MCF-7-MnSOD^WT and MCF-7-MnSOD^K68Q cells were treated without or with 5 Gy of IR.

[7] = tested on: T47D-HTR cells; test: Clonogenic cell survival, hydroxy-Tam-resistant T47D-HTR cells; assay type: cell-based, human; conditions: 5 μM GC4419 for 5 days
Procedure: Clonogenic cell survival assay. For the clonogenic survival analysis, exponentially growing cells were replated using appropriate dilutions, and clonogenic survival was evaluated after 14 days in regular growth medium. Cells were stained with crystal violet, and colonies of >50 cells were counted and utilized to calculate clonogenic survival^46.
To test parameters indicative of oxidative stress, a clonogenic assay with hydroxy-Tam and antioxidant treatments was performed. Cells were plated at a density of 50,000 cells per 60-mm dish and treated with 1 μM hydroxy-Tam (Sigma) and 5 μM GC4419 (Galera Therapeutics) for a total of 120 h. This protocol was repeated with a fresh medium change every 24 h for 5 days. On day 6, the cells were trypsinized, counted, and replated in control medium using appropriate dilutions, and clonogenic survival was evaluated.

## [Cl][Mn][Cl].c1cc2nc(c1)CN[C@H]1CCCC[C@@H]1NCCN[C@H]1CCCC[C@@H]1NC2 [GC4419]
[1]
  oral mucositis: reduce oral mucositis
[2]
  cisplatin resistance phenotype: converted the Cispl-R cells to a sensitive phenotype
[3]
  xenograft growth (tumor volume): significant inhibition of xenograft growth
[4]
  Tam resistance in vitro: reverses Tam resistance
[5]
  cell ROS levels: decreased cell ROS levels
[6]
  ionizing radiation resistance (IRR) phenotype, clonogenic cell survival: reversed the IRR phenotype
[7]
  sensitivity to hydroxy-Tam (clonogenic cell survival): became sensitive to hydroxy-Tam
